Test results reported in US10100097B2, “GIP-GLP-1 dual agonist compounds and methods” (Zealand Pharma A/S, priority 2012, dated 2018).
Like-named read-outs stand apart in the source and are kept apart here. Numbered stars: 1 amine (or outer) side, 2 acyl side, 3 side chain; on linkers, the order of the positions; unused ones are H or OH. Square brackets hold non-standard residues; d marks the D form. Side chains are listed from the residue outwards. Peptide text beside a SMILES is read from it. * marks the point of attachment. C16 diacid = O=C(O)CCCCCCCCCCCCCCC(=O)*; γGlu = O=C(O)[C@H](CCC(=O)[*:2])N[*:1]; Palmitoyl = CCCCCCCCCCCCCCCC(=O)*; Aib = CC(C)(N)C(=O)O

Columns and labels:
human GIP R = biological target: T1, human GIP R (Homo sapiens, UniProt P48546); assay: Human GIP receptor (GIP R) activity assay, cAMP induction (AlphaScreen cAMP kit); format: cell-based
T1 construct: expressed in transfected cells
T1 sequence (P48546 22-466): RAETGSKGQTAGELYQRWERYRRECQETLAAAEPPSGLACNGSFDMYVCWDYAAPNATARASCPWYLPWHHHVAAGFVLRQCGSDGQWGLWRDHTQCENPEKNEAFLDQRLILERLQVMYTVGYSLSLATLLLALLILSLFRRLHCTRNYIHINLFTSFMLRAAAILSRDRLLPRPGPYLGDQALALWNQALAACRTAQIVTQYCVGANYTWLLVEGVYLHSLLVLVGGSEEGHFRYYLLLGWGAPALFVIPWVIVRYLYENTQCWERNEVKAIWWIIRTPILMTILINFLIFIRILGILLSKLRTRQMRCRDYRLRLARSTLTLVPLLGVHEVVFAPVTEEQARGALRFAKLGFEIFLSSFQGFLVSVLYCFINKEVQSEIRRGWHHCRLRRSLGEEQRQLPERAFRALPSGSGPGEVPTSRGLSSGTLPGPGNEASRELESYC
Description: Human GIP Receptor (GIP R) and GLP-1 Receptor (GLP-1 R) Activity Assay
In vitro effects of peptide conjugates of the invention were assessed by measuring the induction of cAMP following stimulation of the respective receptor by GIP, GLP1 or analogues of these, as outlined in the invention, using the AlphaSceen® cAMP kit from Perkin-Elmer according to instructions. Briefly. HEK293 cells expressing the human GIP R or GLP-1 R (stable cell lines generated through transfection of the cDNA for human GIP R or GLP-1 and selection of stable clones) were seeded at 30,000 cells/well in 96-well microtiter plates coated with 0.01% poly-L-lysine, and grown for 1 day in culture in 200 μl growth medium (DMEM, 10% FCS, Penicillin (100 IU/ml), Streptomycin (100 μg/ml)). On the day of analysis, growth medium was removed and the cells were washed once with […] Tyrode's buffer (Tyrode's Salts (9.6 g/1), 10 mM HEPES, pH 7.4). […] The Assay buffer was removed and cells are lysed in 80 μl Lysis buffer (0.1% w/v BSA, 5 mM HEPES, 0.3% v/v Tween-20) per well. From each well 10 μl lysed cells was transferred to a 384-well plate and mixed with 15 μl bead-mix (1 Unit/15 μl anti-cAMP Acceptor Beads, 1 Unit/15 μl Donor Beads, and 1 Unit/15 μl Biotinylated cAMP in Assay Buffer). The plates were mixed and incubated in the dark for an hour at room temperature before measuring using an Envision™ plate reader (Perkin-Elmer).

human GLP-1 R = biological target: T2, human GLP-1 R (Homo sapiens, UniProt P43220); assay: Human GLP-1 receptor (GLP-1 R) activity assay, cAMP induction (AlphaScreen cAMP kit); format: cell-based; settings: HEK293 cells expressing the human GLP-1 R, 15 min at 37° C., average values of multiple determinations, read-out: GLP1 R (EC50 in nM)
T2 construct: expressed in transfected cells
T2 sequence (P43220 24-463): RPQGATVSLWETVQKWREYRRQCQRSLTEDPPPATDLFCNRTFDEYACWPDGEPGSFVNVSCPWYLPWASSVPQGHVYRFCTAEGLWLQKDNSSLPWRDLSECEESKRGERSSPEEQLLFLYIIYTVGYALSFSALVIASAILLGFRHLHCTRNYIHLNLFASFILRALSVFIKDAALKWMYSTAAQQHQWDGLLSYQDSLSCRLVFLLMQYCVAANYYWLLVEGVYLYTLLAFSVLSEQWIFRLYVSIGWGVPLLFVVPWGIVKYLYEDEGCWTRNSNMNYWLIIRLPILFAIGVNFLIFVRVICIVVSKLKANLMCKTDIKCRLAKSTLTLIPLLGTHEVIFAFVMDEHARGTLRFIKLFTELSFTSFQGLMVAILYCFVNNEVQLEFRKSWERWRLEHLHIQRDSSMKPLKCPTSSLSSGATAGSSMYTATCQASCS
Method in brief: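 Stable HEK293 clones expressing human GIP R or GLP-1 R, grown 1 day, washed in Tyrode's buffer (10 mM HEPES, pH 7.4), then stimulated with peptide. Cells lysed and cAMP quantified by AlphaScreen competition with biotinylated cAMP, 1 h dark incubation at room temperature.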

[1] = HEK293 cells expressing the human GIP R, cAMP induction, 15 min at 37° C., average values of multiple determinations, read-out: GIP R (EC50 in nM)

| EC50 (human GIP R; [1]) [nM] | SMILES | further results |
| --- | --- | --- |
| 0.096 | CC[C@H](C)[C@H](NC(=O)[C@H](CO)NC(=O)[C@H](Cc1ccc(O)cc1)NC(=O)[C@H](CC(=O)O)NC(=O)[C@H](CO)NC(=O)[C@@H](NC(=O)[C@H](Cc1ccccc1)NC(=O)[C@@H](NC(=O)CNC(=O)[C@H](CCC(=O)O)NC(=O)C(C)(C)NC(=O)[C@@H](N)Cc1ccc(O)cc1)[C@@H](C)O)[C@@H](C)O)C(=O)N[C@@H](Cc1ccc(O)cc1)C(=O)N[C@@H](CC(C)C)C(=O)N[C@@H](CC(=O)O)C(=O)N[C@@H](CCCCN)C(=O)N[C@@H](CCCCN)C(=O)N[C@@H](C)C(=O)N[C@@H](CCC(N)=O)C(=O)N[C@@H](CCCNC(=N)N)C(=O)N[C@@H](C)C(=O)N[C@@H](Cc1ccccc1)C(=O)N[C@H](C(=O)N[C@@H](CC(N)=O)C(=O)N[C@@H](Cc1c[nH]c2ccccc12)C(=O)N[C@@H](CC(C)C)C(=O)N[C@@H](CC(C)C)C(=O)NC(C)(C)C(=O)N[C@@H](CCCCN)C(N)=O)C(C)C [Compound 24] (H-Y[Aib]EGTFTSDYSIYLDKKAQRAFVNWLL[Aib]K-NH2) | – |
| – | CC[C@H](C)[C@H](NC(=O)[C@H](CCCCN)NC(=O)[C@H](CCC(=O)O)NC(=O)[C@H](CC(C)C)NC(=O)[C@H](Cc1ccc(O)cc1)NC(=O)[C@@H](NC(=O)[C@H](CO)NC(=O)[C@H](Cc1ccc(O)cc1)NC(=O)[C@H](CC(=O)O)NC(=O)[C@H](CO)NC(=O)[C@@H](NC(=O)[C@H](Cc1ccccc1)NC(=O)[C@@H](NC(=O)CNC(=O)[C@H](CCC(=O)O)NC(=O)C(C)(C)NC(=O)[C@@H](N)Cc1ccc(O)cc1)[C@@H](C)O)[C@@H](C)CC)[C@@H](C)CC)C(=O)N[C@@H](C)C(=O)N[C@@H](C)C(=O)N[C@@H](CCCCN)C(=O)N[C@@H](CCC(=O)O)C(=O)N[C@@H](Cc1ccccc1)C(=O)N[C@H](C(=O)N[C@@H](CC(N)=O)C(=O)N[C@@H](Cc1c[nH]c2ccccc12)C(=O)N[C@@H](CC(C)C)C(=O)N[C@@H](CC(C)C)C(=O)N[C@@H](C)C(=O)N[C@@H](CCC(N)=O)C(=O)N[C@@H](CCCCN)C(N)=O)C(C)C [Compound 4] (H-Y[Aib]EGTFISDYSIYLEKIAAKEFVNWLLAQK-NH2) | EC50 (human GIP R): 0.022 nM |
| 0.053 | CCCCCCCCCCCCCCCC(=O)N[C@@H](CCC(=O)NCCCC[C@H](NC(=O)[C@H](CCC(=O)O)NC(=O)[C@H](CC(=O)O)NC(=O)[C@H](CC(C)C)NC(=O)[C@H](Cc1ccc(O)cc1)NC(=O)[C@@H](NC(=O)[C@H](CO)NC(=O)[C@H](Cc1ccc(O)cc1)NC(=O)[C@H](CC(=O)O)NC(=O)[C@H](CO)NC(=O)[C@@H](NC(=O)[C@H](Cc1ccccc1)NC(=O)[C@@H](NC(=O)CNC(=O)[C@H](CCC(=O)O)NC(=O)C(C)(C)NC(=O)[C@@H](N)Cc1ccc(O)cc1)[C@@H](C)O)[C@@H](C)O)[C@@H](C)CC)C(=O)N[C@@H](C)C(=O)N[C@@H](C)C(=O)N[C@@H](CCCCN)C(=O)N[C@@H](CC(=O)O)C(=O)N[C@@H](Cc1ccccc1)C(=O)N[C@H](C(=O)N[C@@H](CCC(=O)O)C(=O)N[C@@H](Cc1c[nH]c2ccccc12)C(=O)N[C@@H](CC(C)C)C(=O)N[C@@H](CCC(=O)O)C(=O)N[C@@H](CO)C(=O)N[C@@H](C)C(N)=O)[C@@H](C)CC)C(=O)O [Compound 50] (H-Y[Aib]EGTFTSDYSIYLDEK([γGlu-Palmitoyl])AAKDFIEWLESA-NH2) | – |
| 0.14 | CC[C@H](C)[C@H](NC(=O)[C@H](CO)NC(=O)[C@H](Cc1ccc(O)cc1)NC(=O)[C@H](CC(=O)O)NC(=O)[C@H](CO)NC(=O)[C@@H](NC(=O)[C@H](Cc1ccccc1)NC(=O)[C@@H](NC(=O)CNC(=O)[C@H](CCC(=O)O)NC(=O)C(C)(C)NC(=O)[C@@H](N)Cc1ccc(O)cc1)[C@@H](C)O)[C@@H](C)O)C(=O)N[C@@H](Cc1ccc(O)cc1)C(=O)N[C@@H](CO)C(=O)N[C@@H](CC(=O)O)C(=O)N[C@@H](CCCCN)C(=O)N[C@@H](CCCCN)C(=O)N[C@@H](C)C(=O)N[C@@H](CCC(N)=O)C(=O)N[C@@H](CCCNC(=N)N)C(=O)N[C@@H](C)C(=O)N[C@@H](Cc1ccccc1)C(=O)N[C@H](C(=O)N[C@@H](CC(N)=O)C(=O)N[C@@H](Cc1c[nH]c2ccccc12)C(=O)N[C@@H](CC(C)C)C(=O)N[C@@H](CC(C)C)C(=O)N[C@@H](C)C(=O)NC(C)(C)C(=O)N[C@@H](CCCCN)C(N)=O)C(C)C [Compound 13] (H-Y[Aib]EGTFTSDYSIYSDKKAQRAFVNWLLA[Aib]K-NH2) | – |
| 0.015 | CC[C@H](C)[C@H](NC(=O)[C@H](CO)NC(=O)[C@H](Cc1ccc(O)cc1)NC(=O)[C@H](CC(=O)O)NC(=O)[C@H](CO)NC(=O)[C@@H](NC(=O)[C@H](Cc1ccccc1)NC(=O)[C@@H](NC(=O)CNC(=O)[C@H](CCC(=O)O)NC(=O)C(C)(C)NC(=O)[C@@H](N)Cc1ccc(O)cc1)[C@@H](C)O)[C@@H](C)O)C(=O)N[C@@H](Cc1ccc(O)cc1)C(=O)N[C@@H](CC(C)C)C(=O)N[C@@H](CC(=O)O)C(=O)N[C@@H](CCCCN)C(=O)N[C@@H](CCCCN)C(=O)N[C@@H](C)C(=O)N[C@@H](CCC(N)=O)C(=O)N[C@@H](CCCCN)C(=O)N[C@@H](CCC(=O)O)C(=O)N[C@@H](Cc1ccccc1)C(=O)N[C@H](C(=O)N[C@@H](CC(N)=O)C(=O)N[C@@H](Cc1c[nH]c2ccccc12)C(=O)N[C@@H](CC(C)C)C(=O)N[C@@H](CC(C)C)C(=O)N[C@@H](C)C(=O)NC(C)(C)C(=O)N[C@@H](CCCCN)C(N)=O)C(C)C [Compound 19] (H-Y[Aib]EGTFTSDYSIYLDKKAQKEFVNWLLA[Aib]K-NH2) | – |
| 0.022 | CC[C@H](C)[C@H](NC(=O)[C@H](CO)NC(=O)[C@H](Cc1ccc(O)cc1)NC(=O)[C@H](CC(=O)O)NC(=O)[C@H](CO)NC(=O)[C@@H](NC(=O)[C@H](Cc1ccccc1)NC(=O)[C@@H](NC(=O)CNC(=O)[C@H](CCC(=O)O)NC(=O)C(C)(C)NC(=O)[C@@H](N)Cc1ccc(O)cc1)[C@@H](C)O)[C@@H](C)O)C(=O)N[C@@H](Cc1ccc(O)cc1)C(=O)N[C@@H](CC(C)C)C(=O)N[C@@H](CC(=O)O)C(=O)N[C@@H](CCCCN)C(=O)N[C@@H](CCCCNC(=O)CC[C@H](NC(=O)CCCCCCCCCCCCCCC(=O)O)C(=O)O)C(=O)N[C@@H](C)C(=O)N[C@@H](CCC(N)=O)C(=O)N[C@@H](CCCNC(=N)N)C(=O)N[C@@H](C)C(=O)N[C@@H](Cc1ccccc1)C(=O)N[C@H](C(=O)N[C@@H](CC(N)=O)C(=O)N[C@@H](Cc1c[nH]c2ccccc12)C(=O)N[C@@H](CC(C)C)C(=O)N[C@@H](CC(C)C)C(=O)N[C@@H](C)C(=O)NC(C)(C)C(=O)N[C@@H](CCCCN)C(N)=O)C(C)C [Compound 31] (H-Y[Aib]EGTFTSDYSIYLDKK([γGlu-C16 diacid])AQRAFVNWLLA[Aib]K-NH2) | – |
| – | CC[C@H](C)[C@H](NC(=O)[C@H](CO)NC(=O)[C@H](Cc1ccc(O)cc1)NC(=O)[C@H](CC(=O)O)NC(=O)[C@H](CO)NC(=O)[C@@H](NC(=O)[C@H](Cc1ccccc1)NC(=O)[C@@H](NC(=O)CNC(=O)[C@H](CCC(=O)O)NC(=O)C(C)(C)NC(=O)[C@@H](N)Cc1ccc(O)cc1)[C@@H](C)O)[C@@H](C)O)C(=O)N[C@@H](Cc1ccc(O)cc1)C(=O)N[C@@H](CC(C)C)C(=O)N[C@@H](CC(=O)O)C(=O)N[C@@H](CO)C(=O)N[C@@H](CCCCN)C(=O)N[C@@H](C)C(=O)N[C@@H](CCCCN)C(=O)N[C@@H](CCCNC(=N)N)C(=O)N[C@@H](C)C(=O)N[C@@H](Cc1ccccc1)C(=O)N[C@H](C(=O)N[C@@H](CC(N)=O)C(=O)N[C@@H](Cc1c[nH]c2ccccc12)C(=O)N[C@@H](CC(C)C)C(=O)N[C@@H](CC(C)C)C(=O)N[C@@H](C)C(=O)NC(C)(C)C(=O)N[C@@H](CCCCN)C(N)=O)C(C)C [Compound 18] (H-Y[Aib]EGTFTSDYSIYLDSKAKRAFVNWLLA[Aib]K-NH2) | EC50 (human GLP-1 R): 0.015 nM |
